“Also recorded” adds a separate entry of the source. Marks after values point to notes of the source that are not given here. Blank lines part the entries; values can stand above or below the compound they belong to.
Tests used:
Tau pathology = assay: Human imaging study (PET in AD subjects and non-demented controls); format: in vivo
Protocol: In a clinical trial, subjects with AD as well as non-demented controls (NDC) underwent dynamic PET imaging for over 3 h following 370 MBq bolus injection of ^18F-4.

[1] = test system: Tau (AD brain vs mouse brain homogenate); assay: Tracer signal ratio, AD brain vs mouse brain homogenate; format: binding, human; set-up: High signal to noise (grade), AD brain / mouse brain homogenate: key: −: poor; ∘: moderate; +: good; ++: very good; +++: excellent
[2] = test system: Tau (AD brain homogenate vs healthy control brain homogenate); assay: Tracer signal-to-noise ratio, AD brain homogenate vs healthy control brain homogenate; format: binding, human; set-up: High signal to noise (grade), AD brain / HC brain homogenate / High signal to noise (further homogenates) (grade): key to the marks not given beside the values
[3] = target: T1, Tau in PSP brain sections (Homo sapiens, UniProt P10636); assay: Autoradiography on human PSP brain slices; format: binding
T1 construct: frozen human brain slices; from tissue; host or cells: human PSP brain slices
T1 sequence (P10636 1-441 isoform P10636-8): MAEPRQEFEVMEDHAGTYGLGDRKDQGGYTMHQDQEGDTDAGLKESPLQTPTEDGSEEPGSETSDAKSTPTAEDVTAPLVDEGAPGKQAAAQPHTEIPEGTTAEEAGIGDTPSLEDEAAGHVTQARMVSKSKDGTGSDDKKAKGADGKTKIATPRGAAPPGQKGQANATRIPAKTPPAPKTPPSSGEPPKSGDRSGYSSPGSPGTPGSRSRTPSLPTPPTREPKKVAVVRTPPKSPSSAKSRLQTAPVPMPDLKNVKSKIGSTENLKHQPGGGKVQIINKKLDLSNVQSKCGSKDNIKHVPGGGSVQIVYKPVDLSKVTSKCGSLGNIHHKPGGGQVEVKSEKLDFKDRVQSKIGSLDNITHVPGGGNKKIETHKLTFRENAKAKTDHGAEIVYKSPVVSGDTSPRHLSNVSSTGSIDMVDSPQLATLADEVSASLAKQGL
Protocol: (§1) 18 micron thick frozen human brain slices and 6 micron thick human FFPE brain slices were examined via autoradiography. Brain sections were equilibrated for at least 1 h in 1×PBS solution prior to use in the experiment. Each brain section was covered with a solution of the ^18F-labeled tracer (200 Bq/μl, 500 μl) in 1×PBS. For blocking experiments with the corresponding ^19F-compound, an excess of the blocking compound (10 μM) was mixed with the ^18F-compound. The brain sections were allowed to incubate with the tracer solution at room temperature for 1 h, drained afterwards and placed in a slide holder. The slides were then washed sequentially with 1×PBS for 1 min; 70% EtOH in 1×PBS for 2 min; 30% EtOH in 1×PBS for 2 min; and 1×PBS for 1 min. The slides were allowed to air-dry before being placed on Fuji imaging plates […] for overnight exposure. The imaging plates were scanned and the signal was measured using Fuji software to produce an autoradiographic image of the brain section.

Tau = Tau (Homo sapiens, UniProt P10636); assay: Competition binding to Tau in human AD brain homogenate with 18F-labeled Tau binder; set-up: High affinity to Tau (grade): key: −: poor; ∘: moderate; +: good; ++: very good; +++: excellent; conditions: for IC50: human AD brain homogenate, determined with non-radioactive fluorine-19 derivatives; as to high Tau binding (grade): key: −: poor; ∘: moderate; +: good; ++: very good; +++: excellent
Tau, sequence (P10636 623-708 limits assumed): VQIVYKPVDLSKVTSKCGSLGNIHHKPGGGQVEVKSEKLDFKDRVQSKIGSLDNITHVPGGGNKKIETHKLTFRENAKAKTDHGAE
Protocol: 20 μg of human Alzheimer disease brain homogenate was incubated with a dilution series of each test compound (1000 to 0.06 nM) in the presence of 800 Bq of ^18F-labeled Tau binder. The samples were shaken at 110 rpm for 45 min at 37° C. Samples were then filtered through GF/B 96 well filter plates and washed twice with 300 μL assay buffer (PBS containing 0.1% BSA and 2% DMSO). Thereafter, filter plates were sealed and a Fuji Film Imaging Plate (BAS-SR2025) was placed on top. The imaging plate was analyzed after overnight exposition using a Fuji Film BAS-5000. Non-specific signal was determined with samples containing ^18F-labeled Tau-reference binder in the presence of assay buffer without brain substrate and competitor. […] The unblocked ^18F-labeled Tau-binder signal was defined as total binding. IC50 values were calculated by Prism V6 (GraphPad) setting total binding to 100%.

[4] = Autoradiography on healthy control (HC) human brain slices; format: binding
Protocol: as §1

Tau in AD brain sections = assay: Autoradiography on human AD brain slices; format: binding
Protocol: as §1

[5] = target: T2, Tau in PiD brain sections (Homo sapiens, UniProt P10636); assay: Autoradiography on human PiD brain slices; format: binding
T2 construct: frozen human brain slices; from tissue; host or cells: human PiD brain slices
T2 sequence (P10636 1-410 isoform P10636-5): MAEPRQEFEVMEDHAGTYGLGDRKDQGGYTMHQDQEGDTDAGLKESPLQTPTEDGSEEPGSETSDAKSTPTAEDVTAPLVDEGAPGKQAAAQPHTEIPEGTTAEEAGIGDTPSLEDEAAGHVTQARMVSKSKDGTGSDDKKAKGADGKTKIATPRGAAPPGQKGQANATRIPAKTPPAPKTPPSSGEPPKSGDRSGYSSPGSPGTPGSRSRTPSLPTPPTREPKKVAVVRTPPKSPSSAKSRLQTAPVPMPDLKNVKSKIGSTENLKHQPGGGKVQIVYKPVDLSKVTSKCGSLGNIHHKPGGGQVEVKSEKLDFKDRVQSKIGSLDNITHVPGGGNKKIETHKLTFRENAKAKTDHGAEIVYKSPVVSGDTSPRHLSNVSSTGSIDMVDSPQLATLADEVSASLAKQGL
Protocol: as §1

MAO B = target: T3, MAO B (Homo sapiens, UniProt P27338); assay: MAO B 18F-fluoro deprenyl competition assay in human HC brain homogenate; format: binding; set-up: Low affinity to MAO B (grade): key: −: poor; ∘: moderate; +: good; ++: very good; +++: excellent
T3 construct: 20 μg of human brain homogenate (without AD pathology); from tissue; host or cells: human brain homogenate without AD pathology
T3 sequence (P27338 1-520): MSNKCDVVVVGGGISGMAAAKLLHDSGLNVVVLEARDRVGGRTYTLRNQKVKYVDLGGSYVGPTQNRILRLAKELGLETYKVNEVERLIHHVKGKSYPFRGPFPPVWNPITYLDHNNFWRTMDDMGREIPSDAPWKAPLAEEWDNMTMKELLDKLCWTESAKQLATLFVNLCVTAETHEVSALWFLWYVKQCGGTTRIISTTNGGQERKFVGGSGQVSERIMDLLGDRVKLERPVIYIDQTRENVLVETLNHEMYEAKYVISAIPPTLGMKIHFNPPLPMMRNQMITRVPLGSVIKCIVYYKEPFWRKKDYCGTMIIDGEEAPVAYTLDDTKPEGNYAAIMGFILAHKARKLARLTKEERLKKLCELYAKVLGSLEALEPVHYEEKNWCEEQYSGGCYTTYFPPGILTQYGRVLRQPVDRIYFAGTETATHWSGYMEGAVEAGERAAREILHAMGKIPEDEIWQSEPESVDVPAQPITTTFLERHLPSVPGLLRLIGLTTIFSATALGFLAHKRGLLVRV
Protocol: The samples were shaken at 110 rpm for 45 min at 37° C. Samples were then filtered through GF/B 96 well filter plates and washed twice with 300 μL assay buffer (PBS containing 0.1% BSA and 2% DMSO). Thereafter, filter plates were sealed and a Fuji Film Imaging Plate (BAS-SR2025) was placed on top. The imaging plate was analyzed after overnight exposition using a Fuji Film BAS-5000. […] IC50 values were calculated by Prism V6 (GraphPad) setting total binding to 100%.

[6] = further AD brain homogenate vs HC brain homogenate

brain uptake in human subjects (in words) (Tau pathology; 370 MBq bolus, dynamic PET): good brain uptake
washout from non-target brain regions in human subjects (in words) (Tau pathology; 370 MBq bolus, dynamic PET): fast washout
Autoradiography signal in PSP brain sections (in words) [3]: strong signal
Binding to PSP brain slices by autoradiography (grade) ([3]; in house data): +++^a)
High affinity to Tau (grade) (Tau; Table 1, IC50 in AD brain homogenate, fluorine-19 derivatives): +++
IC50 (Tau): < 2 nM
Binding to AD brain (Braak stage 1/3) by autoradiography (grade) (Tau in AD brain sections; in house data): +++^a)
Binding to AD brain (Braak stage 5/6) by autoradiography (grade) (Tau in AD brain sections; in house data): +++^a)
Autoradiography signal in PiD brain sections (in words) [5]: strong signal
Binding to PiD brain slices by autoradiography (grade) ([5]; in house data): +++^a)
IC50 (MAO B): > 1000 nM
fold higher MAO B IC50 than compound 18F-1 (MAO B; HC brain homogenate): > 5 fold
Low affinity to MAO B (grade) (MAO B; Table 1): +++
SMILES: [18F]c1ncccc1-c1ccc2c(n1)[nH]c1ccncc12 [Compound ^18F-4]
uptake in AD subjects (in words) (Tau pathology; AD subjects): focal asymmetric uptake was evident in temporal, parietal and frontal lobes
uptake in choroid plexus, basal ganglia, striatum, amygdala, meninges in non-demented controls (in words) (Tau pathology; NDC subjects): no increased uptake
Ratio of tracer signal AD brain / signal in mouse brain homogenate ([1]; 18F tracer): 15.1^a)
fold higher signal to noise ratio than 18F-1 ([1]; AD brain homogenate vs whole mouse brain homogenate): 6.9 fold
High signal to noise (grade), AD brain / mouse brain homogenate ([1]; Table 1): +++
fold higher signal to noise ratio than 18F-1 ([2]; AD vs HC brain homogenate): 7.7 fold
High signal to noise (further homogenates) (grade) ([2]; Table 1): +++
High signal to noise (grade), AD brain / HC brain homogenate ([2]; Table 1): +++
fold higher signal to noise ratio than 18F-1 [2, 6]: 7.2-11 fold
fold higher signal to noise ratio than 18F-2 [2, 6]: 3.7-4.0 fold
Autoradiography signal in healthy control (HC) sections (in words) [4]: no specific signal was visible
Autoradiography signal in AD brain sections (in words) (Tau in AD brain sections; blockable with excess cold compound): strong punctated staining; also recorded: Specific binding

high Tau binding (grade) (Tau; Table 2, fluorine-19 derivatives): +++
IC50 (Tau): < 2 nM
IC50 (MAO B): > 1000 nM
SMILES: Fc1ncccc1-c1ccc2c(n1)[nH]c1ccncc12 [Compound F-4]
